Data on 2 compounds can be found in patent US10350334B2, “Catheter locking solution having antimicrobial and anticoagulation properties” (Becton, Dickinson and Company, priority 2009, dated 2019).

Assay [1] concerns S. epidermidis. As to the kind of experiment: Minimum Biofilm Inhibitory Concentration (MBIC) test. In kind it is cell-based, Staphylococcus epidermidis. Particulars: for MBIC: adhered cells, 24 hours incubation; for MBIC Assuming 2 mL lock volume: amount in 2 mL lock volume. How it is done:
(§1) To further evaluate the efficacy of local anesthetics in antimicrobial lock solutions of the present invention, the minimum concentration at which these drugs can inhibit biofilm growth was tested. The local anesthetics identified in Table 4 were tested against three different species of bacteria identified in Table 3 to assess the antimicrobial efficacy against adhered microbes. It is known that adhered microbes, or biofilms, can be more resistant to antimicrobials than planktonic cells.
(§2) Experiments were conducted against adhered microbes as follows: first, a test tube containing 10 mL of sterile TSB was inocubated with BD BBL™ Qualiswab™, with the strain of interest. The tube was placed in an incubator at 37° C. overnight. The next day, a flask containing 25 mL of sterile TSB (or Sabouraud Dextrose Broth (SDB) for fungal species) was inoculated with 1 mL of bacterial suspension. The flask was placed in an incubator at 37° C. and shaken at 150 RPM. The next day a new flask containing 25 mL of TSB (or SDB) media was inoculated with 1 mL from the previous culture. The bacterial or fungal species were allowed to grow to log phase.
(§3) After the microbes entered the log phase, their concentration was checked to ensure that they had reached a minimum of 1×10^8 CFU/mL per a 0.5 MacFarland standard. Microbes were diluted to a concentration of 1×10^5 CFU/mL using a nephelometer and 200 μL of the microbial suspensions were plated on each of the wells of a 96 well plate. The plate was incubated in a standard incubator at 37° C. for 2 hours to allow for microbial cell adhesion. Next, dilutions of the desired concentrations of antimicrobials were prepared. In a separate, blank plate, 1:2 serial dilutions were prepared with the highest concentration of the antimicrobial to the left of the plate, decreasing in concentration towards the right of the plate. For example, 170 μL of the highest concentration of an antimicrobial was dispensed in column 1 (left of plate). Each of the rest of the columns received 170 μL of saline. Column 2 received 170 μL of antimicrobial, making for a 1:2 dilution (or 50% of original concentration). Contents of Column 2 were then transferred to 3, then from 3 to 4, and so forth. Each well was supplemented with 20% media (TSB for S. epidermidis and P. aeruginosa and SDB for C. albicans), thereby ensuring the viability of the cells over the test time period (24 hours). Positive control wells had 20% media in saline. The bacterial plate was removed from the incubator, and bacterial suspension discarded (adhered cells remain on plate). The antimicrobial formulations identified in Table 4 were then added to the bacterial plate and incubated in a standard incubator at 37° C. for 24 hours. After this time period, solutions in the plate were discarded and plates were rinsed with 200 μL of saline. The cells were then fixed with 200 μL of 95% ethanol for 30 minutes, and allowed to air dry for 10 minutes. Next, the cells were stained for 20 minutes with 250 μL of a filtered solution of 2% crystal violet dye. The plates were then rinsed three times with water, and the 2% crystal violet dye was solubilized with 300 μL of 95% ethanol. The plates were allowed to stand for 10 minutes to complete solubilization and then the plates were read on a spectrophotometer at 570 nm absorbance, wherein high absorbance readings of >0.600 indicated microbial growth. Columns in the plate that had no growth were recorded as the […] (MBIC). FIG. 2 illustrates the MBIC corresponding to the specific local anesthetics.

Assay [2] deals with P. aeruginosa. The assay is described as above. In kind it is cell-based, Pseudomonas aeruginosa. Particulars: for MBIC: adhered cells, 24 hours incubation; for MBIC Assuming 2 mL lock volume: amount in 2 mL lock volume. As to the method:
as §1, §2, §3

Assay [3] deals with C. albicans. The description is as above. Particulars: for MBIC: adhered cells, 24 hours incubation; for MBIC Assuming 2 mL lock volume: amount in 2 mL lock volume. The format is cell-based, Candida albicans. How it is done:
as §1, §2, §3

Assay [4] concerns sheep plasma. Description: Sheep's Plasma Clotting Assay (USP coagulation test). In kind it is biochemical. Particulars: for Equivalence to Heparin: calculated from volumes giving 50% clotting versus heparin standard. As to the method:
In order to understand what the working concentration range could be for the anesthetics tested, a Sheep's Plasma Clotting Assay was performed. This test is based on the United States Pharmacopeia (USP) standard test for coagulation and is often used to understand heparin potency. […] Sheep plasma was thawed in a water bath set to 37° C. To facilitate thawing, the plasma in the bottle was inverted every 15 minutes. The plasma was thawed after about 45-60 minutes. The thawed sheep plasma was filtered through glass wool or filtered into a clean glass beaker or flask, to remove particulate matter and to activate it. About 70-80 mL of filtered sheep plasma was collected. Next, a set of test tubes were prepared (VWR Disposable 13×100-mm) in a 6×12 rack. Ten test tubes were needed for each test solution including ten test tubes for the heparin standard. […] For each test solution, every (10) test tube received different volumes of 0.9% NaCl. […] Next, the local anesthetics were added, namely, tetracaine at 30 mg/mL, dibucaine at 30 mg/mL, and bupivacaine at 38 mg/mL. Each of the ten test tubes received different volumes of test solutions, starting with 280 μL and increasing in volume by 20 μL until reaching a volume of 460 μL at the tenth tube. The total volume of saline and test solutions in each of the tubes was 800 μL. A standard solution, namely, USP heparin sodium standard, was also prepared in the same way, with the starting concentration of heparin being 5.6 U/mL. Next, 1 mL of sheep plasma for heparin assay (Bio-Supplies, Inc, P-SPR-1500) was pipetted into each tube, and the rack was gently shaken to ensure mixing. Two hundred μL of a 1% CaCl2 solution was placed into each tube. The total volume for each tube is 2 mL. Each tube was capped with a VWR Plug-type cap, and contents of each tube were inverted six times to ensure that the entire inner wall of each tube was wet. Tubes were incubated for 1 hour at room temperature. After the 1 hour time period, the extent of clotting in each tube was determined by gently shaking each individual test tube (tapping the end gently is acceptable) and then tilting the tube to observe a clot both vertically and horizontally. The degree to which each tube developed a clot was recorded using the following criteria (per the USP Standard) for the visual inspection of the tubes: • 0% Clotting=No apparent clot formed. • 25% Clotting=Small observable clot with mostly liquid. Clot is very mobile. • 50% Clotting=Plasma is completely clotted but mobile. • 75% Clotting=Clot is not mobile but liquid is still present. • 100% Clotting=Clot is not mobile and no liquid is present.
Because of the testing protocol, starting concentrations of anesthetics were diluted from the original formulation. Calculations can be made to compare the efficacy of these anesthetics to the standard anticoagulant heparin by calculating the point at which both standard and test samples yield 50% clotting. Using this calculation, the anesthetic concentration can be referenced back to a measure of U/mL of heparin equivalence.

Several values for one entry are separate records, joined by “and”; a condition that tells them apart may be missing. Equal entries are not always repeated.

Take `CCCCN1CCCCC1C(=O)Nc1c(C)cccc1C.Cl` (stereo not shown) [Bupivacaine, Bupivacaine HCl]: the MBIC in assay [1] is 8.12 mg/mL; in assay [2], 16.25 mg/mL; in assay [3], “No inhibition”. The “MBIC Assuming 2 mL lock volume” value in assay [1] is 16.24 mg; in assay [2], 32.5 mg; in assay [3] it was “No inhibition”. The same compound returned a coagulation in assay [4] (at all concentrations tested) of 75%.

In the case of `CCCCNc1ccc(C(=O)OCCN(C)C)cc1.Cl` [Tetracaine, Tetracaine HCl], the MBIC in assay [1] (HCl) was found to be 0.94 mg/mL; in assay [1] (listed as tetracaine, HCl), 0.9 mg/mL; in assay [2] (HCl) it was 6.41 mg/mL; in assay [2] (listed as tetracaine, HCl) it was 1.88 mg/mL; in assay [3], 0.24 mg/mL. Besides, the “MBIC Assuming 2 mL lock volume” value in assay [1] stood at 1.88 mg; in assay [2], 12.82 mg; in assay [3], 0.48 mg. The “volume at 50% coagulation” value in assay [4] (Rep 1) was 350 µL. For the same compound, the “Equivalence to Heparin” value in assay [4] (per replicate, HCl) is 6.06 U/mL and 6.24 U/mL (2×); in assay [4] (per replicate, listed as tetracaine, HCl), 6.25 U/mL. Further, in assay [4] (final concentration in tube, 1 hour at room temperature, per replicate, HCl), the 50% clotting range was 5.4 mg/mL (2×) and 5.1-5.4 mg/mL.
